Measured values as given in PubChem BioAssay AID330 (DTP/NCI, 2004).
Several values for one entry are separate records, joined by “and”; a condition that tells them apart may be missing. Equal entries are not always repeated. Toxic doses and inconclusive results are not listed.

Test system: P388 leukemia ip, CD2F1 mice, survival T/C
Test: NCI In Vivo Anticancer Drug Screen. Data for tumor model P388 Leukemia (intraperitoneal) in CD2F1 (CDF1) mice
Conditions: endpoint: median survival time, higher = longer survival
Outline: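 Mice carrying the transplanted tumor received test compound or vehicle. Survival was recorded in each group, and the value is the treated-group measurement divided by that of the vehicle-treated control group.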

[1] = dose: 50.0 mg/kg/injection, schedule: Q01DX009 (ip), vehicle: saline with Tween-80
[2] = dose: 100.0 mg/kg/injection, schedule: Q01DX009 (ip), vehicle: saline with Tween-80
[3] = dose: 200.0 mg/kg/injection, schedule: Q01DX009 (ip), vehicle: saline with Tween-80
[4] = dose: 50.0 mg/kg/injection, schedule: Q01DX005 (ip), vehicle: saline with Tween-80
[5] = dose: 100.0 mg/kg/injection, schedule: Q01DX005 (ip), vehicle: saline with Tween-80
[6] = dose: 200.0 mg/kg/injection, schedule: Q01DX005 (ip), vehicle: saline with Tween-80
[7] = dose: 50.0 mg/kg/injection, schedule: Q01DX009 (ip), vehicle: saline
[8] = dose: 100.0 mg/kg/injection, schedule: Q01DX009 (ip), vehicle: saline
[9] = dose: 200.0 mg/kg/injection, schedule: Q01DX009 (ip), vehicle: saline
[10] = dose: 60.0 mg/kg/injection, schedule: Q01DX005 (ip), vehicle: saline with Tween-80
[11] = dose: 120.0 mg/kg/injection, schedule: Q01DX005 (ip), vehicle: saline with Tween-80
[12] = dose: 240.0 mg/kg/injection, schedule: Q01DX005 (ip), vehicle: saline with Tween-80
[13] = dose: 400.0 mg/kg/injection, schedule: Q01DX009 (ip), vehicle: saline

Structure (SMILES): CC(C)C(C)CS(=O)(=O)OCCCCOS(=O)(=O)CC(C)C(C)C (configuration not stated)
- T/C (dose: 50.0 mg/kg/injection, schedule: Q01DX005 (ip), vehicle: suspension in saline): 103 % of control
- T/C (dose: 100.0 mg/kg/injection, schedule: Q01DX005 (ip), vehicle: suspension in saline): 105 % of control
- T/C (dose: 200.0 mg/kg/injection, schedule: Q01DX005 (ip), vehicle: suspension in saline): 112 % of control

Structure (SMILES): CC(C)(Oc1ccc(C(=O)c2ccc(Cl)c(Cl)c2)cc1)C(=O)O
- T/C [1]: 94 % of control
- T/C [2]: 102 % of control
- T/C [3]: 107 % of control

Structure (SMILES): COc1cccc2c1C(=O)c1c(O)c3c(c(O)c1C2=O)C[C@@](O)(C(C)=O)CC3OC1CC(NC2CC(=O)N(c3ccccc3)C2=O)C(O)C(C)O1 (some centres not stated)
- T/C (dose: 6.25 mg/kg/injection, schedule: Q04DX003 (ip), vehicle: water): 108 % of control
- T/C (dose: 12.5 mg/kg/injection, schedule: Q04DX003 (ip), vehicle: water): 103 % of control
- T/C (dose: 25.0 mg/kg/injection, schedule: Q04DX003 (ip), vehicle: water): 103 % of control
- T/C (dose: 50.0 mg/kg/injection, schedule: Q04DX003 (ip), vehicle: water): 108 % of control

Structure (SMILES): O=C(CCc1ccccc1C(=O)O)c1ccccc1O
- T/C [4]: 94 % of control
- T/C [5]: 105 % of control
- T/C [6]: 93 % of control

Structure (SMILES): Cc1cccc(C)c1OC(=S)SSC(=S)Oc1c(C)cccc1C
- T/C (dose: 100.0 mg/kg/injection, schedule: Q01DX001 (ip), vehicle: Klucel (hydroxypropylcellulose) (HPC)): 94 % of control
- T/C (dose: 200.0 mg/kg/injection, schedule: Q01DX001 (ip), vehicle: Klucel (hydroxypropylcellulose) (HPC)): 87 % of control

Structure (SMILES): CC(=O)CC(=O)OC(C)(C)C#CC(C)(C)OC(=O)CC(C)=O
- T/C [7]: 102 % of control
- T/C [8]: 103 % of control
- T/C [9]: 100 % of control

Structure (SMILES): O=C(O)Cc1ccccc1C(=O)O.[Pb]
- T/C (dose: 25.0 mg/kg/injection, schedule: Q01DX009 (ip), vehicle: saline with Tween-80): 90 % of control
- T/C [1]: 104 % of control
- T/C [2]: 86 % of control

Structure (SMILES): O=C1c2ccccc2C(=O)N1C1Nc2ccccc2N1
- T/C [10]: 99 % of control
- T/C [11]: 99 % of control
- T/C [12]: 96 % of control

Structure (SMILES): O=CNC(Cc1ccc(N(CCCl)CCCl)cc1)C(=O)O (configuration not stated)
- T/C (dose: 6.25 mg/kg/injection, schedule: Q01DX009 (ip), vehicle: saline sonified): 159 % of control
- T/C (dose: 6.6 mg/kg/injection, schedule: Q04DX003 (ip), vehicle: saline): 170 % of control
- T/C (dose: 10.0 mg/kg/injection, schedule: Q04DX003 (ip), vehicle: saline): 160 % of control
- T/C (dose: 12.5 mg/kg/injection, schedule: Q01DX009 (ip), vehicle: saline sonified): 168 % of control
- T/C (dose: 15.0 mg/kg/injection, schedule: Q04DX003 (ip), vehicle: saline): 170 % of control
- T/C (dose: 25.0 mg/kg/injection, schedule: Q01DX009 (ip), vehicle: saline sonified): 213 % of control

Structure (SMILES): O=NN(CCCl)C(=O)Oc1c(Cl)cc(Cl)cc1Cl
- T/C (dose: 50.0 mg/kg/injection, schedule: Q01DX001 (ip), vehicle: saline with Tween-80): 163 % of control
- T/C (dose: 67.0 mg/kg/injection, schedule: Q01DX001 (ip), vehicle: saline with Tween-80): 99 % of control
- T/C (dose: 100.0 mg/kg/injection, schedule: Q01DX001 (ip), vehicle: saline with Tween-80): 193 % of control

Structure (SMILES): NC(CCC(=O)OCc1ccccc1)C(=O)OCc1ccccc1 (configuration not stated)
- T/C (dose: 50.0 mg/kg/injection, schedule: Q04DX003 (ip), vehicle: saline): 100 % of control
- T/C (dose: 100.0 mg/kg/injection, schedule: Q04DX003 (ip), vehicle: saline): 104 % of control
- T/C (dose: 200.0 mg/kg/injection, schedule: Q04DX003 (ip), vehicle: saline): 100 % of control

Structure (SMILES): N#Cc1c(N)nc(N)nc1Nc1ccc(Cl)cc1
- T/C [10]: 113 % of control
- T/C [11]: 110 % of control
- T/C [12]: 115 % of control

Structure (SMILES): COc1c(C)n(C2OC(CO)C(O)C2O)ccc1=O (configuration not stated)
- T/C [7]: 104 % of control
- T/C [8]: 100 % of control
- T/C [9]: 103 % of control
- T/C [13]: 98 % of control

Structure (SMILES): COC1(OC)C=NNc2nccn21
- T/C [10]: 100 % of control
- T/C [11]: 96 % of control
- T/C [12]: 104 % of control

Structure (SMILES): CN(C)P(=O)(N(C)C)N1CCCCCC1
- T/C [1]: 102 % of control
- T/C [2]: 106 % of control
- T/C [3]: 94 % of control

Structure (SMILES): CC1(C)OC2CC(=O)OCC23C1CC(=O)C1(C)C2=CC(=O)OC(c4ccoc4)C2(C)CCC13 (configuration not stated)
- T/C (dose: 0.5 mg/kg/injection, schedule: Q01DX009 (ip), vehicle: saline + alcohol): 106 % of control
- T/C (dose: 1.0 mg/kg/injection, schedule: Q01DX009 (ip), vehicle: saline + alcohol): 108 % of control
- T/C (dose: 2.0 mg/kg/injection, schedule: Q01DX009 (ip), vehicle: saline + alcohol): 101 % of control
- T/C (dose: 4.0 mg/kg/injection, schedule: Q01DX009 (ip), vehicle: saline + alcohol): 105 % of control

Structure (SMILES): C[n+]1c(-c2ccc(/C=N/NC(=O)c3ccc(C(=O)N/N=C/c4ccc(-c5cn6ccccc6[n+]5C)cc4)c(O)c3O)cc2)cn2ccccc21
- T/C [4]: 107 % of control
- T/C [5]: 96 % of control

Structure (SMILES): C=CC(C)(CCC=C(C)C)ON(C)C (configuration not stated)
- T/C (dose: 100.0 mg/kg/injection, schedule: Q04DX002 (ip), vehicle: saline with Tween-80): 100 % of control

Structure (SMILES): CCOC(=O)C(Cc1ccc(N)cc1)N1C(=O)c2ccccc2C1=O (configuration not stated)
- T/C (dose: 50.0 mg/kg/injection, schedule: Q01DX009 (ip), vehicle: distilled water + Tween-80 + alcohol): 100 % of control
- T/C (dose: 100.0 mg/kg/injection, schedule: Q01DX009 (ip), vehicle: distilled water + Tween-80 + alcohol): 95 % of control
- T/C (dose: 200.0 mg/kg/injection, schedule: Q01DX009 (ip), vehicle: distilled water + Tween-80 + alcohol): 91 % of control

Structure (SMILES): O=C1NC(c2cccc(OCc3ccccc3)c2)Nc2ccccc21 (configuration not stated)
- T/C (dose: 3.13 mg/kg/injection, schedule: Q01DX009 (ip), vehicle: Klucel (hydroxypropylcellulose) (HPC)): 94 % of control
- T/C (dose: 6.25 mg/kg/injection, schedule: Q01DX009 (ip), vehicle: Klucel (hydroxypropylcellulose) (HPC)): 107 % of control
- T/C (dose: 12.5 mg/kg/injection, schedule: Q01DX009 (ip), vehicle: Klucel (hydroxypropylcellulose) (HPC)): 102 % of control
- T/C (dose: 25.0 mg/kg/injection, schedule: Q01DX009 (ip), vehicle: Klucel (hydroxypropylcellulose) (HPC)): 100 % of control
- T/C (dose: 50.0 mg/kg/injection, schedule: Q01DX009 (ip), vehicle: Klucel (hydroxypropylcellulose) (HPC)): 109 % of control
- T/C (dose: 100.0 mg/kg/injection, schedule: Q01DX009 (ip), vehicle: Klucel (hydroxypropylcellulose) (HPC)): 115 % of control
- T/C (dose: 200.0 mg/kg/injection, schedule: Q01DX009 (ip), vehicle: Klucel (hydroxypropylcellulose) (HPC)): 102 % of control

Structure (SMILES): Cc1ccc(-n2cnc3sc4c(c3c2=O)CCCC4)cc1
- T/C (dose: 60.0 mg/kg/injection, schedule: Q01DX005 (ip), vehicle: Klucel (hydroxypropylcellulose) (HPC)): 100 % of control
- T/C (dose: 120.0 mg/kg/injection, schedule: Q01DX005 (ip), vehicle: Klucel (hydroxypropylcellulose) (HPC)): 89 % of control
- T/C (dose: 240.0 mg/kg/injection, schedule: Q01DX005 (ip), vehicle: Klucel (hydroxypropylcellulose) (HPC)): 90 % of control

Structure (SMILES): CN=Nc1c(O)[nH]c2ccc(C)cc12
- T/C [10]: 96 % of control
- T/C [11]: 98 % of control
- T/C [12]: 92 % of control

Structure (SMILES): COC(=O)C1=C(c2ccccc2)ON2C(C)(C)COC12C (configuration not stated)
- T/C (dose: 50.0 mg/kg/injection, schedule: Q01DX005 (ip), vehicle: Klucel (hydroxypropylcellulose) (HPC)): 106 % of control
- T/C (dose: 100.0 mg/kg/injection, schedule: Q01DX005 (ip), vehicle: Klucel (hydroxypropylcellulose) (HPC)): 106 % of control
- T/C (dose: 200.0 mg/kg/injection, schedule: Q01DX005 (ip), vehicle: Klucel (hydroxypropylcellulose) (HPC)): 100 % of control

Structure (SMILES): CCOC(=N)N1[C@@H]2CCCC[C@@H]21
- T/C (dose: 100.0 mg/kg/injection, schedule: Q04DX002 (ip), vehicle: saline): 101 % of control
- T/C (dose: 200.0 mg/kg/injection, schedule: Q04DX002 (ip), vehicle: saline): 109 % of control
- T/C (dose: 400.0 mg/kg/injection, schedule: Q04DX002 (ip), vehicle: saline): 120 % of control

Structure (SMILES): O=C(Oc1ccc[nH]c1=O)C1CC1
- T/C (dose: 12.5 mg/kg/injection, schedule: Q01DX009 (ip), vehicle: saline): 99 % of control and 100 % of control
- T/C (dose: 25.0 mg/kg/injection, schedule: Q01DX009 (ip), vehicle: saline): 101 % of control and 102 % of control
- T/C [7]: 98 % of control and 108 % of control
- T/C [8]: 103 % of control and 106 % of control
- T/C [9]: 107 % of control and 117 % of control
- T/C [13]: 100 % of control

Structure (SMILES): COc1ccc(-c2ccc(Cc3ccc(-c4ccc(OC)cc4)o3)o2)cc1
- T/C [4]: 94 % of control
- T/C [5]: 91 % of control
- T/C [6]: 91 % of control
